Where two headings read alike, the source gives them in different places.
Assay: Solubility tests of 4-hydroxyacetophenone in cosmetic oil with or without glycerol ester additive
Conditions: for Löslichkeit "HAP" bei 35 °C / Löslichkeit "HAP" bei RT: solvent C12-15 Alkylbenzoate; for Löslichkeit "HAP" bei RT: room temperature (ca. 20 °C)
Method: Die Durchführung der Löslichkeitsversuche erfolgte bei 2 verschiedenen Temperaturen: Bei Raumtemperatur (ca. 20 °C) und bei 35 °C.
Das weiße, kristalline 4-Hydroxyacetophenon ("4-HAP") wurde in kleinen Portionen langsam (über mehrere Stunden) zum jeweiligen Lösungsmittel unter Rühren hinzugegeben, bis sich kein weiteres Material mehr lösen ließ. Hier war die Löslichkeitsgrenze erreicht. Nicht gelöstes Material war deutlich als milchiger Niederschlag oder einzelne Kristalle erkennbar. Das Additiv (der jeweilige Glycerinester) wurde ebenfalls in kleinen Portionen hinzugegeben.
Die Experimente bei 35°C wurden im Wasserbad durchgeführt. Die Temperatur wurde per Temperatursonde, welche mit dem Heizrührer verbunden war, konstant gehalten. Die Experimente wurden in verschraubten 15 ml Gläsern durchgeführt, um ein Verdampfen des Lösungsmittels zu verhindern. Die Löslichkeit wurde 12-24 Stunden nach der letzten Substanzzugabe gemessen, so dass sich das System equilibrieren konnte. […] Die Löslichkeitsversuche wurden in dem bekannten kosmetischen Öl "C12-15 Alkylbenzoate", erhältlich unter anderem unter dem Handelsnamen Tegesoft® TN B von der Firma Evonik, durchgeführt. Die Ergebnisse sind in Tabelle 1 wiedergegeben: Tabelle 1

Polyglyceryl-2-caprat
Löslichkeit des Glycerylesters im verwendeten Lösungsmittel (kosmetischen öl) (1 % of the ester in C12-15 Alkylbenzoate, 35°C): vollständig
Löslichkeit des Glycerylesters im verwendeten Lösungsmittel (kosmetischen öl) (1 % of the ester in C12-15 Alkylbenzoate, RT): vollständig

Glycerylstearatcitrate [reference compound]
Einfluss auf die Löslichkeit von 4-Hydroxyacetophenon: keinen Einfluss

CCCCCCCCCCCCCCCCCC(=O)OCC(O)CO (centres unmarked) [Glycerylstearate, reference compound]
Einfluss auf die Löslichkeit von 4-Hydroxyacetophenon (known emulsifier used as additive, concentration not given): keinen Einfluss

CC(=O)c1ccc(O)cc1 [HAP, 4-Hydroxyacetophenon]
Kristalle mit (Löslichkeit "HAP" bei 35 °C) (concentration at which undissolved crystals were seen, no glycerol ester, C12-15 Alkylbenzoate, 35 °C): 3%
Kristalle bei (Löslichkeit "HAP" bei RT) (concentration at which undissolved crystals were seen, no glycerol ester, C12-15 Alkylbenzoate, room temperature): 2,25%
Löslichkeit "HAP" bei 35 °C (no glycerol ester (Ohne), 35 °C water bath): 2,5%
Löslichkeit "HAP" bei RT (no glycerol ester (Ohne), read 12-24 h after last addition): 2%
Löslichkeit "HAP" bei RT (with 0,5 % Polyglyceryl-2-caprat): 2,25 % gelöst
Löslichkeit "HAP" bei 35 °C (with 1 % Glycerylcaprylat, 35 °C): 3 % gelöst (Steigerung im Vergleich zu 2,5 % ohne Ester
Löslichkeit "HAP" bei RT (with 1 % Glycerylcaprylat): 2,25 % gelöst
Löslichkeit "HAP" bei 35 °C (with 1 % Polyglyceryl-2-caprat, 35 °C): 3 % gelöst (Steigerung im Vergleich zu 2,5 % ohne Ester)
Löslichkeit "HAP" bei RT (with 1 % Polyglyceryl-2-caprat): < 2,25 % nicht vollständig gelöst

CCCCCCCC(=O)OCC(O)CO (centres unmarked) [Glycerylcaprylat]
Löslichkeit des Glycerylesters im verwendeten Lösungsmittel (kosmetischen öl): vollständig

Reference: patent EP3122315B1, “ACTIVE-INGREDIENT COMBINATIONS CONSISTING OF 4-HYDROXYACETOPHENONE AND ONE OR MORE GLYCERIN AND/OR OLIGOGLYCERIN ESTERS OF BRANCHED CHAINS AND/OR UNBRANCHED CHAINS OF ALKANE CARBOXYLIC ACIDS, AND COSMETIC OR DERMATOLOGICAL PREPARATIONS CONTAINING SAID ACTIVE-INGREDIENT COMBINATIONS” (Symrise AG, priority 2014, dated 2015)
